Here are results for one compound from US12037375B2, “Protein variant and composition for treating neurodegenerative disease using the same” (KOREA UNIVERSITY RESEARCH AND BUSINESS FOUNDATION, priority 2021, dated 2024).

For this data set, the system named is SH-SY-5Y neuroblastoma cells. Briefly: Cell viability by MTT assay. It counts as cell-based. As to conditions: FIG. 4.

Procedure: SH-SY-5Y neuroblastoma cells were purchased from the Korean Cell Line Bank (Seoul, South Korea) and incubated in a 1:1 mixture of Dulbecco's modified eagle medium/F-12 nutrient mixture ham (DMEM/F-12; WelGENE) supplemented with 10% fetal bovine serum (FBS; Capricorn Scientific GmbH, Ebsdorfergrund, Germany) and 1% antibiotic (10,000 U/mL penicillin G, 10,000 μg/mL streptomycin and 25 μg/mL amphotericin B; Hyclone, Logan, UT, USA). The antibiotic was sterilized through a 0.2 μm filter before use and the cells were incubated at 37° C. under humid conditions including 5% CO2.
Specifically, 15,000 cells were grown in each well of a 96-well plate and incubated for 24 hours. […] Then, the MTT solution was added to the medium and incubated at 37° C. for 3 hours to form the MTT-formazan product. The amount of the product was quantified as the extent of absorption at a wavelength of 540 nm.
Each test was conducted on three samples at a time and the entire test was repeated three times to ensure reproducibility.
Specifically, 15,000 cultured neuroblastoma were added with each of 1 uM of a monomer protein and 1 uM of a fibrous protein, and incubated for 2 days, and then the change in cytotoxicity was measured using MTT reagent.

With `CC[C@H](C)[C@H](NC(=O)[C@H](C)NC(=O)CNC(=O)[C@H](CCCCN)NC(=O)[C@H](CC(N)=O)NC(=O)[C@H](CO)NC(=O)CNC(=O)[C@@H](NC(=O)[C@H](CC(=O)O)NC(=O)[C@H](CCC(=O)O)NC(=O)[C@H](C)NC(=O)[C@H](Cc1ccccc1)NC(=O)[C@H](CC(N)=O)NC(=O)[C@@H](NC(=O)[C@H](CC(C)C)NC(=O)[C@H](CCCCN)NC(=O)[C@H](CCC(N)=O)NC(=O)[C@H](Cc1c[nH]cn1)NC(=O)[C@H](Cc1c[nH]cn1)NC(=O)[C@@H](NC(=O)[C@H](CCC(=O)O)NC(=O)[C@H](Cc1ccc(O)cc1)NC(=O)CNC(=O)[C@H](CO)NC(=O)[C@H](CC(=O)O)NC(=O)[C@H](Cc1c[nH]cn1)NC(=O)[C@H](CCCNC(=N)N)NC(=O)[C@H](Cc1ccccc1)NC(=O)[C@H](CCC(=O)O)NC(=O)[C@H](C)NC(=O)[C@@H](N)CC(=O)O)C(C)C)C(C)C)C(C)C)C(=O)N[C@@H](CC(N)=O)C(=O)NCC(=O)N[C@@H](CC(N)=O)C(=O)N[C@@H](CCSC)C(=O)N[C@H](C(=O)NCC(=O)NCC(=O)N[C@H](C(=O)N[C@H](C(=O)N[C@H](C(=O)N[C@@H](CC(N)=O)C(=O)O)[C@@H](C)CC)C(C)C)C(C)C)C(C)C`, the cytotoxicity result is on record as “reduced cytotoxicity”.
